The results in this text go back to PubChem BioAssay (NCI).

Among the test systems are RXF-631 renal; HOP-62 NSCLC; SK-MEL-5 melanoma; CCRF-CEM leukemia; DMS 114 small cell lung; M19-MEL melanoma; SNB-78 CNS; LXFL 529 NSCLC; KM20L2 colon; SF-268 CNS; DMS 273 small cell lung; XF 498 CNS; IGROV1 ovarian; DLD-1 colon; HOP-18 NSCLC.
Common to all, as to assay: NCI tumour cell line growth inhibition, 48 h

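96-well plates; 48 h exposure; 5 concentrations. Endpoints by linear interpolation between flanking doses. Not reached: highest tested concentration assigned. TGI is the concentration that stops growth completely.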

For `CCCn1c(SCC)c2cc3cc4ccccc4cc3cc2c1-c1nc(F)nc(F)n1`, the TGI in the assay with RXF-631 renal, in the assay with HOP-62 NSCLC, in the assay with SK-MEL-5 melanoma, with CCRF-CEM leukemia, in the assay on DMS 114 small cell lung and with M19-MEL melanoma was more than 100 µM in each case. Moreover, the TGI in the assay on SNB-78 CNS, in the assay with LXFL 529 NSCLC, in the assay on KM20L2 colon, with SF-268 CNS, in the assay on DMS 273 small cell lung and in the assay with XF 498 CNS was more than 100 µM in each case. This compound also showed a TGI in the assay with IGROV1 ovarian of more than 100 µM.
Regarding `CC1(C)CCC[C@@]2(C)C1CC[C@H]1CC(O)C3(C)CCC12C3` (stereo partly drawn), the TGI in the assay with DLD-1 colon amounted to 30.9 µM; in the assay on RXF-631 renal, 33.5 µM; in the assay with HOP-62 NSCLC it was 34.5 µM; in the assay on SK-MEL-5 melanoma, 31.4 µM; in the assay on CCRF-CEM leukemia, 61.2 µM; in the assay on DMS 114 small cell lung, 31.2 µM. The TGI with M19-MEL melanoma was determined as 38.2 µM; in the assay on SNB-78 CNS, 37 µM; in the assay with LXFL 529 NSCLC, 31.2 µM; in the assay on KM20L2 colon, 33 µM; with SF-268 CNS, 40.9 µM; in the assay with XF 498 CNS it was 31.7 µM. The TGI in the assay on IGROV1 ovarian amounted to 50.6 µM.
As to `CSc1nc(NC(=O)O)c(N(C(C)=O)C(=O)O)c(=O)n1C`, the TGI in the assay with DLD-1 colon, with RXF-631 renal, in the assay on SK-MEL-5 melanoma, in the assay on CCRF-CEM leukemia, in the assay on DMS 114 small cell lung and in the assay with M19-MEL melanoma was more than 100 µM throughout. The TGI in the assay with SNB-78 CNS, with LXFL 529 NSCLC, in the assay with KM20L2 colon, in the assay on SF-268 CNS, in the assay on DMS 273 small cell lung and in the assay with XF 498 CNS was more than 100 µM throughout. This compound also gave a TGI with IGROV1 ovarian of more than 100 µM.
For `Cc1cccc2[s+]snc12`, the TGI in the assay on DLD-1 colon was 74.9 µM; in the assay on RXF-631 renal it was 43.4 µM; in the assay with HOP-62 NSCLC, more than 100 µM; in the assay with SK-MEL-5 melanoma, more than 100 µM; in the assay with CCRF-CEM leukemia, more than 65.1 µM; with DMS 114 small cell lung it was more than 100 µM. The TGI in the assay with M19-MEL melanoma is more than 100 µM; with SNB-78 CNS, more than 100 µM; in the assay on LXFL 529 NSCLC, more than 92.5 µM; in the assay with KM20L2 colon it was more than 100 µM; in the assay on SF-268 CNS, more than 100 µM; with DMS 273 small cell lung it was more than 100 µM. For the same compound, the TGI in the assay on XF 498 CNS, with IGROV1 ovarian and with HOP-18 NSCLC was more than 100 µM each time.
As for `COc1cc(C=Nc2ccc(C(C)C)cc2)cc(OC)c1OC`, the TGI in the assay on DLD-1 colon, with HOP-62 NSCLC, with SK-MEL-5 melanoma, in the assay on CCRF-CEM leukemia, in the assay on DMS 114 small cell lung and in the assay with M19-MEL melanoma was more than 100 µM in each case. Also, the TGI in the assay on SNB-78 CNS, with LXFL 529 NSCLC, in the assay on KM20L2 colon, with SF-268 CNS, in the assay with DMS 273 small cell lung and in the assay on XF 498 CNS was more than 100 µM each time. Also, the TGI in the assay with IGROV1 ovarian and with HOP-18 NSCLC was more than 100 µM each time.
